Key:
[1] = Evaluation of solubility in tetrahydrofuran; format: physicochemical; settings: 25° C., {100/(100+X)}×100
Description: The thus obtained triphenylamine derivatives HTM-1 to HTM-14 each as the hole transport material were evaluated for the solubility. A small amount of tetrahydrofuran was added to 100 mg of each triphenylamine derivative under the temperature of 25° C. Then, the resulting sample was vibrated and left to stand. This process was repeated to measure the added amount X (mg) of tetrahydrofuran dissolved in the triphenylamine derivative to saturation. With the added amount X, the equation below gives the solubility. Solubility (%)={100/(100+X)}×100 <Evaluation of Ionization Potentials>

[2] = Evaluation of ionization potential (AC-1 ultraviolet photoelectron analyzer); format: physicochemical; settings: atmosphere type ultraviolet photoelectron analyzing apparatus AC-1
Excerpt: The respective triphenylamine derivatives HTM-1 to HTM-14 were each evaluated for the ionization potential. An atmosphere type ultraviolet photoelectron analyzing apparatus (AC-1 manufactured by Riken Keiki Co., Ltd.) was used to measure the ionization potential.

Structure (SMILES) | THF Solubility [1] | Ionization Potential [2]
Cc1ccc(N(c2ccc(/C=C/C=C/c3ccccc3)cc2)c2ccc(/C=C/C=C/c3ccccc3)cc2)c(C)c1 [HTM-9] | 12.3% | 5.46 eV
COc1ccc(N(c2ccc(/C=C/C=C/c3ccccc3)cc2)c2ccc(/C=C/C=C/c3ccccc3)cc2)cc1 [HTM-12] | 7.5% | 5.43 eV
Cc1cccc(C)c1N(c1ccc(/C=C/C=C/c2ccccc2)cc1)c1ccc(/C=C/C=C/c2ccccc2)cc1 [HTM-11] | 11.4% | 5.55 eV
CCCCOc1ccccc1N(c1ccc(/C=C/C=C/c2ccccc2)cc1)c1ccc(/C=C/C=C/c2ccccc2)cc1 [HTM-3] | 24.1% | 5.39 eV
C(/C=C/c1ccc(N(c2ccc(/C=C/C=C/c3ccccc3)cc2)c2ccc(Oc3ccccc3)cc2)cc1)=C\c1ccccc1 [HTM-8] | 21.0% | 5.48 eV
CCCCc1ccc(N(c2ccc(/C=C/C=C/c3ccccc3)cc2)c2ccc(/C=C/C=C/c3ccccc3)cc2)cc1 [HTM-10] | 17.8% | 5.42 eV
CCOc1ccccc1N(c1ccc(/C=C/C=C/c2ccccc2)cc1)c1ccc(/C=C/C=C/c2ccccc2)cc1 [HTM-1] | 25.0% | 5.38 eV

Results, then the compound that gave them:

THF Solubility [1] | Ionization Potential [2] | Structure (SMILES)
22.8% | 5.39 eV | CCOc1cc(C)ccc1N(c1ccc(/C=C/C=C/c2ccccc2)cc1)c1ccc(/C=C/C=C/c2ccccc2)cc1 [HTM-4]
23.5% | 5.37 eV | CCOc1cccc(C)c1N(c1ccc(/C=C/C=C/c2ccccc2)cc1)c1ccc(/C=C/C=C/c2ccccc2)cc1 [HTM-2]
25.8% | 5.39 eV | CCOc1ccc(N(c2ccc(/C=C/C=C/c3ccccc3)cc2)c2ccc(/C=C/C=C/c3ccccc3)cc2)c(C)c1 [HTM-7]
24.5% | 5.38 eV | COc1ccc(N(c2ccc(/C=C/C=C/c3ccccc3)cc2)c2ccc(/C=C/C=C/c3ccccc3)cc2)c(C)c1 [HTM-6]
6.1% | 5.45 eV | COc1cccc(N(c2ccc(/C=C/C=C/c3ccccc3)cc2)c2ccc(/C=C/C=C/c3ccccc3)cc2)c1 [HTM-13]
20.0% | 5.33 eV | COc1ccc(N(c2ccc(/C=C/C=C/c3ccccc3)cc2)c2ccc(/C=C/C=C/c3ccccc3)cc2)c(OC)c1 [HTM-5]
6.3% | 5.43 eV | COc1ccccc1N(c1ccc(/C=C/C=C/c2ccccc2)cc1)c1ccc(/C=C/C=C/c2ccccc2)cc1 [HTM-14]

Source: patent US9376371B2, “Triphenylamine derivative, method for manufacturing the same, and electrophotographic photosensitive member” (KYOCERA DOCUMENT SOLUTIONS INC., priority 2013, dated 2016)
